# “And” between values parts separate entries of the source, which are not always exact repeats. Identical values can stand only once.
# Test system: GEMS receptors with CBPA11 (BclXL–LD3 and BclXLhigh variants), STAT3-driven SEAP in HEK293T cells
# Experiment: GEMS SEAP reporter assay, CBPA11 (BclXLhigh, LD3-v and BclXL-v variants) with A-1155463
# Assay type: cell-based
# Parameters: key to Raw data (SEAP) / SEAP, replicate values / Raw data of Figure 5b / Raw data Figure 5e / Raw data of Independent repeat of CBPA11-v1 vs CBPA11-v1-LD3v3 / Raw data of Independent repeat of CBPA11-v3 vs CBPA11-v3-LD3v3 / Raw data of Figure 5b, CBPA11-v1-LD3v3 (SEAP reporter raw value, single replicate) / Raw data of Figure 5b, CBPA11-v1 (SEAP reporter raw value, single replicate): SEAP activity in U/L in culture supernatant
# Description: To rationally design a CBP responding to a chemical input, we used BclXL as the druglow receptor, LD3 as the designed binder and a designed BclXL variant as the drughigh receptor (referred to as BclXLhigh) to construct a CBP responsive to BclXL inhibitors (Fig. 4a). To design BclXLhigh, we used a multistate design computational protocol described elsewhere[26] […] Thus, BclXLhigh-v(1–3) were chosen as the functional drughigh receptors, resulting in three A-1155463-controlled CBPs (referred to as CBPA11-v(1–3)) (Fig. 4c–e).
# HEK293T cells were seeded in a 96-well plate 24 h before transfection. The transfection mix in each well consisted of 3 ng of constitutive human CMV promoter driven mammalian STAT3 expression vector (PhCMV-STAT3-pA), 30 ng of STAT3-induced reporter expression (OStat3-PhCMVmin-SEAP-pA) and 50 ng of expression vectors for each GEMS receptor chain (PSV40-IgK-(drughigh receptor)-EpoRm-IL-6RBm-pA and PSV40-IgK-(druglow receptor-GGGGSX3-LD3)-EpoRm-IL-6RBm-pA). For the specific drughigh receptor and druglow receptor used in the different cellular assays, they are indicated as wild type or with mutations. Then, plasmid DNA was mixed with 50 μl opti-MEM (Thermo Fisher) and 600 ng of polyethyleneimine (Polysciences, catalog no. 24765-1). For drug treatment experiments, drugs were added 12 h post-transfection and incubated with cells for 24 h before the SEAP reporter detection assay.
# SEAP activity (U l^−1) in cell culture supernatants was quantified by kinetic measurements at 405 nm (1 minute per measurement for 30 cycles) of absorbance increase due to phosphatase-mediated hydrolysis of para-nitrophenyl phosphate (pNPP).
# Binding affinities of SPR drug competition assays were calculated using three-parameter nonlinear regression in GraphPad Prism (v.8.3.0). Representative data of cell assays are presented as individual values and mean values (bars). n = 3 refers to biological replicates. All IC50 or EC50 values of cell assays reported were calculated using four-parameter nonlinear regression ± s.d. Bandpass features of cutoff concentrations and Bandwidth90% were estimated based on the curve fitted using bell-shaped curve nonlinear regression in GraphPad Prism (v.8.3.0). […]
# Supplementary Figure 4: Design, screening and validation of BclXLhigh variants. a) Screening of BclXLhigh variants in the GEMS platform. […]
# Dissociation constant measurement of BclXLhigh-v(1-3) and LD3. Equilibrium curves are fitted using […]
# BclXLhigh-v1 (purple), BclXLhigh-v2 (blue), […]
# a) Bcl2high-based bandpass filter designs were developed and to respond to different concentrations of […]
# corresponding inhibitor. c) Screening of Bcl2high-based bandpass filter variants in the GEMS platform.
# The designed binder LD3 was fused to the druglow-receptor (PSV40-IgK-Bcl2-LD3-EpoRm-IL-6RBm-pA) in one EpoR chain and Bcl2high variants with the insensitive Bcl2 (iBcl2) as control in the other EpoR chain (PSV40-IgK-Bcl2high-EpoRm-IL-6RBm-pA). HEK293T cells were transfected with indicated […]
# the mean of six biological replicates ± s.d., overlaid with a scatter dot plot of the original data points.
# (1 picture or pasted object on this page, not shown here)
# Supplementary Figure 6: Binding affinities and drug resistances of Bcl2high-v(2,4,5) assessed by […]
# a) Measurement of dissociation constants for Bcl2high-v(2,4,5) and LD3 interactions. Equilibrium curves […]
# Bcl2high-v(2,4,5) measured by SPR. 5 μM of Bcl2 or indicated variants were mixed with 10 μM of […]
# Bcl2high-v2 (red), Bcl2high-v4
# Supplementary Figure 7: Screening of LD3 variants in CBPA11-v(1-3) and raw data of CBPA11-v(1,3) with LD3-v3 variant. a-c) Screening of LD3 and LD3-v(1-3) variants in complex with BclXL for more sensitive CBPA11-v1 (a), CBPA11-v2 (b), CBPA11-v3 (c) in the GEMS platform. The LD3 variants replaced the role of LD3 (PSV40-IgK-BclXL-LD3-v(1-3)-EpoRm-IL-6RBm-pA) in one EpoR chain and BclXLhigh-v(1-3) in the other EpoR chain (PSV40-IgK-BclXLhigh-V(1-3)-EpoRm-IL-6RBm-pA). HEK293T cells were transfected with […]
# [1] = CBPA11-v1-LD3v3, A-1155463 1 nM
# [2] = CBPA11-v1-LD3v3, A-1155463 3.18 nM
# [3] = CBPA11-v1-LD3v3, A-1155463 10 nM
# [4] = CBPA11-v1-LD3v3, A-1155463 31.8 nM
# [5] = CBPA11-v1-LD3v3, A-1155463 100 nM
# [6] = CBPA11-v1-LD3v3, A-1155463 318 nM
# [7] = CBPA11-v1-LD3v3, A-1155463 1000 nM
# [8] = CBPA11-v1-LD3v3, A-1155463 3180 nM
# [9] = CBPA11-v1-LD3v3, A-1155463 10000 nM
smiles,measurement,setting,value
CN(C)CC#Cc1ccc(OCCCc2sc(N3CCc4cccc(C(=O)Nc5nc6ccccc6s5)c4C3)nc2C(=O)O)c(F)c1 [A-1155463],Normalized data of Figure 5b,[1],12.3584 and 11.9384 and 10.5903
same,Raw data of Figure 5b,[1],17.44 and 15.4815 and 15.2319
same,Raw data of Independent repeat of CBPA11-v1 vs CBPA11-v1-LD3v3,[1],31.801 and 28.5095 and 29.309
same,Raw data of Independent repeat of CBPA11-v1 vs CBPA11-v1-LD3v3,"CBPA11-v1-LD3v3, A-1155463 3.16 nM",34.9091 and 28.121 and 21.957
same,Normalized data of Figure 5b,[2],13.5394 and 12.5226 and 10.9319
same,Raw data of Figure 5b,[2],19.1065 and 16.239 and 15.7232
same,Normalized data of Figure 5b,[3],25.1514 and 28.7722 and 29.2973
same,Raw data of Figure 5b,[3],35.4931 and 37.3111 and 42.1378
same,Raw data of Independent repeat of CBPA11-v1 vs CBPA11-v1-LD3v3,[3],179.972 and 131.844 and 140.391
same,Raw data of Independent repeat of CBPA11-v1 vs CBPA11-v1-LD3v3,"CBPA11-v1-LD3v3, A-1155463 31.6 nM",226.429 and 187.26 and 191.409
same,Normalized data of Figure 5b,[4],78.9386 and 88.4215 and 71.2191
same,Raw data of Figure 5b,[4],111.396 and 114.663 and 102.433
same,Normalized data of Figure 5b,[5],100
same,Raw data of Figure 5b,[5],141.118 and 129.678 and 143.828
same,Raw data of Independent repeat of CBPA11-v1 vs CBPA11-v1-LD3v3,[5],335.207 and 287.921 and 227.786
same,Raw data of Independent repeat of CBPA11-v1 vs CBPA11-v1-LD3v3,"CBPA11-v1-LD3v3, A-1155463 316 nM",270.923 and 196.943 and 173.263
same,Normalized data of Figure 5b,[6],62.5942 and 62.3431 and 56.6992
same,Raw data of Figure 5b,[6],88.3315 and 80.8452 and 81.5497
same,Normalized data of Figure 5b,[7],29.9151 and 30.048 and 29.0586
same,Raw data of Figure 5b,[7],42.2154 and 38.9656 and 41.7945
same,Raw data of Independent repeat of CBPA11-v1 vs CBPA11-v1-LD3v3,[7],123.233 and 79.9582 and 97.1187
same,Raw data of Independent repeat of CBPA11-v1 vs CBPA11-v1-LD3v3,"CBPA11-v1-LD3v3, A-1155463 3160 nM",45.1078 and 32.2032 and 26.5323
same,Normalized data of Figure 5b,[8],11.3098 and 14.9107 and 12.4987
same,Raw data of Figure 5b,[8],15.9601 and 19.3359 and 17.9766
same,Normalized data of Figure 5b,[9],8.9981 and 9.291 and 5.288
same,Raw data of Figure 5b,[9],12.6979 and 12.0483 and 7.606
same,Raw data of Independent repeat of CBPA11-v1 vs CBPA11-v1-LD3v3,[9],23.0011 and 17.3094 and 15.2043
same,Raw data of Independent repeat of CBPA11-v3 vs CBPA11-v3-LD3v3,"CBPA11-v3, A-1155463 0.01 nM",26.5862 and 23.5891 and 24.9373
same,Normalized data Figure 5e,"CBPA11-v3, A-1155463 1 nM",14.7288 and 13.7384 and 12.9495
same,Normalized data of Figure 5b,"CBPA11-v3, A-1155463 1 nM",2.438 and 2.3416 and 2.8403
same,Raw data of Figure 5b,"CBPA11-v3, A-1155463 1 nM",13.0926 and 12.3286 and 14.9355
same,Raw data of Independent repeat of CBPA11-v3 vs CBPA11-v3-LD3v3,"CBPA11-v3, A-1155463 1 nM",77.8998 and 72.2772 and 68.2722
same,Raw data of Independent repeat of CBPA11-v3 vs CBPA11-v3-LD3v3,"CBPA11-v3, A-1155463 3.16 nM",101.26 and 74.5174 and 69.017
same,Normalized data Figure 5e,"CBPA11-v3, A-1155463 3.18 nM",19.1455 and 14.1642 and 13.0908
same,Normalized data Figure 5e,"CBPA11-v3, A-1155463 10 nM",52.8574 and 45.1451 and 43.5321
same,Normalized data of Figure 5b,"CBPA11-v3, A-1155463 10 nM",22.9212 and 24.7467 and 27.0042
same,Raw data of Figure 5b,"CBPA11-v3, A-1155463 10 nM",123.11 and 130.292 and 142
same,Raw data of Independent repeat of CBPA11-v3 vs CBPA11-v3-LD3v3,"CBPA11-v3, A-1155463 10 nM",279.56 and 237.506 and 229.509
same,Raw data of Independent repeat of CBPA11-v3 vs CBPA11-v3-LD3v3,"CBPA11-v3, A-1155463 31.6 nM",420.603 and 418.534 and 369.593
same,Normalized data Figure 5e,"CBPA11-v3, A-1155463 31.8 nM",79.525 and 79.5547 and 70.1024
same,Normalized data of Figure 5b,"CBPA11-v3, A-1155463 31.8 nM",52.5804 and 56.6221 and 62.0483
same,Raw data of Figure 5b,"CBPA11-v3, A-1155463 31.8 nM",282.41 and 298.117 and 326.277
same,Normalized data Figure 5e,"CBPA11-v3, A-1155463 100 nM",93.7695 and 93.9386 and 100
same,Normalized data of Figure 5b,"CBPA11-v3, A-1155463 100 nM",84.9271 and 84.8554 and 85.7543
same,Raw data of Figure 5b,"CBPA11-v3, A-1155463 100 nM",456.144 and 446.765 and 450.933
same,Normalized data Figure 5e,"CBPA11-v3, A-1155463 318 nM",100 and 99.7629
same,Normalized data of Figure 5b,"CBPA11-v3, A-1155463 318 nM",100
same,Raw data of Figure 5b,"CBPA11-v3, A-1155463 318 nM",537.1 and 526.502 and 525.843

# From paper PMC11062894, “Protein-based bandpass filters for controlling cellular signaling with chemical inputs” (Nature Chemical Biology, 2023)
